# Laboratory results from patent US20050148495A1, “Methods and materials including for treating acne” (priority 2003, published 2005).
# Like-named read-outs stand apart in the source and are kept apart here. Non-standard residues stand in square brackets, D forms with d. Residues, ends and D or L forms follow the SMILES beside them. d1Nal = N[C@H](Cc1cccc2ccccc12)C(=O)O
# What was measured:
# Staphylococcus aureus = conditions: for MBC: agent alone
# Enterococcus = assay type: cell-based
# Procedure: (§1) Control tubes containing only water or formulation buffer were prepared for each isolate. Initial growth controls were determined by removing 10 μL from the water control tube and diluting it by 100 fold. From this dilution, 10 μL was used for inoculation and for spreading over the surface onto Laked Blood Agar (LBA) (Anaerobe Systems, Morgan Hill, Calif.) plates. The tubes and plates were incubated in an anaerobic atmosphere at 37° C. for 48 h. […] MBC50 and 90 values represent where 50 and 90%, respectively, of the tested strain's MBC values are equal to or less than the indicated concentration.
# Clostridium difficile = Clostridium difficile 9689
# [1] = Stability in aqueous solution as indicated by biological activity; assay type: physicochemical; conditions: 4° C.
# Procedure: In additional studies, a variety of formulations of XMP.629 were tested for stability under various temperatures, such as 25° C., 40° C., and 50° C., and at various time points, such as 0.5, 1, and 2 months.
# [2] = test system: Enterococcus faccium (VRE); conditions: Enterococcus faccium 700221 (VRE)
# Streptococcus mutans = assay: MIC, panel of human pathogens, standardized NCCLS protocols; assay type: cell-based; conditions: Streptococcus mutans 25175
# Macrococcus caseolyticus = Macrococcus caseolyticus 29750
# [3] = test system: Propionibacterium isolates; conditions: 15 isolates
# Procedure: Inoculum from a representative panel of bacterial strains associated with acne, such as P. acnes, P. avidum, P. granulosum, and Staphylococcus epidermis was prepared by suspending approximately 5-10 isolated bacterial colonies in pre-reduced MicroScan® Inoculum Water (Dade Behring, Deerfield, Ill.), and growing the bacterial suspension to log phase (approximately 48 hrs). An inoculum of between 1-5×10^6/mL was achieved by adding 100 μL of the suspension to 25 mL Brain Heart Infusion Broth (BHI) (Anaerobe Systems, Morgan Hill, Calif.).
# as §1
# [4] = test system: intact and abraded skin of New Zealand White rabbits; assay: Rabbit primary skin irritation test (Draize); assay type: in vivo; conditions: 4 hour exposure
# Procedure: XMP.629 was evaluated for any potential dermal irritant effects in the rabbit primary skin irritation test for this dermal irritation study, XMP.629 was tested on intact and abraded skin in three New Zealand White rabbits. All animals received 0.5 mL of XMP.629 on each intact and abraded dorsal skin application site. This was accomplished by placing a gauze patch directly on the skin of each application site and saturating the patch with 0.5 mL of the XMP.629 solution. The application sites were then wrapped with gauze bandaging and non-irritating semi-occlusive tape. Elizabethan collars were then applied for the 4 hour exposure period. At the end of the 4 hour exposure period, the collars and wrappings were removed and any residual XMP.629 removed. The test sites were evaluated using the standard Draize scoring system (Draize et al., 1944, J. Pharmacol, Exp. Ther. 82: 377-390) for erythema and edema within 30 to 60 minutes and 24, 48, and 72 hours following patch removal.
# in vivo = conditions: both, minipig, plasma, iv; for half-life: 0.05 or 2 mg/kg short IV infusion
# [5] = test system: E. coli 0111 :B4 lipopolysaccharide challenge in CD-1 mice; assay: Murine model of endotoxemia (survival); assay type: in vivo; conditions: 0.65 mg/kg intravenously; 25 mg/kg LPS; seven days
# Procedure: This example addresses studies relating to additional activities of XMP.629, including its known endotoxin-related activities. […] For these studies, groups of 15 male CD-1 mice were challenged with 25 mg/kg E. coli 0111 :B4 lipopolysaccharide via tail vein injection. Immediately following endotoxin challenge, mice were treated intravenously with XMP.629 at 0.07, 0.2, 0.65 mg/kg or saline. Animals were observed twice daily and mortality was recorded for seven days.
# P. acnes = conditions: each strain: UPC686, ATCC 6919 intermediate-erythromycin, UP2022
# Enterococcus hirae = Enterococcus hirae 9790
# [6] = Formulation Buffer Solvent, Study 1
# [7] = Formulation Buffer Solvent, Study 2
compound,measurement,setting,value
"CC(C)C[C@@H](NC(=O)[C@H](N)CCCCN)C(=O)N[C@H](Cc1ccccc1)C(=O)N[C@H](CCCNC(=N)N)C(=O)N[C@H](Cc1cccc2ccccc12)C(=O)N[C@H](CCC(N)=O)C(=O)N[C@H](C)C(=O)N[C@H](CCCCN)C(=O)N[C@H](Cc1cccc2ccccc12)C(N)=O [XMP.629, NH2-lys-leu-phe-arg-(3-(1-naphthyl)-ala)-gln-ala-lys-(3-(1-naphthyl)-ala)-CONH2] (H-[dK][dL][dF][dR][d1Nal][dQ][dA][dK][d1Nal]-NH2)",MBC,Staphylococcus aureus; Staphylococcus aureus 076U-550,8 µg/mL
same,MBC,Staphylococcus aureus; Staphylococcus aureus 230U-579,8 µg/mL
same,MBC,Staphylococcus aureus; Staphylococcus aureus 314U-148,8 µg/mL
same,XMP.629 MBC,"Staphylococcus aureus; Staphylococcus aureus 342U-116, XMP.629 alone",8 µg/mL
same,MBC,Staphylococcus aureus; Staphylococcus aureus 342U-116,8 µg/mL
same,MBC,Staphylococcus aureus; Staphylococcus aureus 15031-1857,4 µg/mL
same,"MIC90, XMP.629 data reported as MBC values",Enterococcus,4 µg/mL
same,"MIC90, XMP.629 data reported as MBC values",Enterococcus; in FB (formulation buffer),0.5 µg/mL
same,Minimum Inhibitory Concentrations,Clostridium difficile,2.00 µg/mL
same,volume of the central compartment,0.05 mg/kg dose,203.2 mL/kg
same,decrease of plasma concentrations within 4 hours of dosing,intravenous,approximately 100 fold
same,stable in aqueous solution as indicated by biological activity,[1],greater than 6 months
same,Minimum Inhibitory Concentrations,[2],2.00 µg/mL
same,Minimum Inhibitory Concentrations,Streptococcus mutans,≦1 μg/mL
same,Minimum Inhibitory Concentrations,Macrococcus caseolyticus,2.00 µg/mL
same,MBC GeoMean Values,[3]; [6],1.2 µg/mL
same,MIC GeoMean Values,[3]; [6],0.7 µg/mL
same,MBC GeoMean Values,[3]; [7],1.10 µg/mL
same,MIC GeoMean Values,[3]; [7],0.7 µg/mL
same,MBC GeoMean Values,"[3]; Water Solvent, Study 1",2.41 µg/mL
same,MIC GeoMean Values,"[3]; Water Solvent, Study 1",1.7 µg/mL
same,MBC GeoMean Values,"[3]; Water Solvent, Study 2",1.9 µg/mL
same,MIC GeoMean Values,"[3]; Water Solvent, Study 2",1.7 µg/mL
same,dermal irritation,[4]; abraded skin,only mildly irritating
same,dermal irritation,[4]; intact skin,not irritating
same,Vd,in vivo; Sinclair mini-pig,0.067 to 0.102 L/kg
same,clearance,in vivo; Sinclair mini-pig,1.75 to 2.6 mL/min/kg
same,Vd,"in vivo; Sinclair mini-pig, 0.05 mg/kg",1.79 L/kg
same,Vd,"in vivo; Sinclair mini-pig, 0.2 mg/kg",0.956 L/kg
same,half-life,"in vivo; Sinclair mini-pig, beta half-life",1 to 1.3 h
same,half-life,"in vivo; Sinclair mini-pig, initial half-life",0.03 to 0.9 h
same,half-life,"in vivo; Sinclair mini-pig, terminal half-life",~15 h
same,MRT,"in vivo; Sinclair, 0.05 mg/kg",11.3 h
same,clearance,"in vivo; Sinclair, 0.05 mg/kg",2.59 mL/min/kg
same,MRT,"in vivo; Sinclair, 0.2 mg/kg",7.41 h
same,clearance,"in vivo; Sinclair, 0.2 mg/kg",1.74 mL/min/kg
same,survival in endotoxin-challenged mice,[5],complete protection
same,MBC,P. acnes,1 µg/mL
same,Minimum Inhibitory Concentrations,Enterococcus hirae,2.00 µg/mL
